Reference: US4471131A, “Novel silyl esters of N-phosphonomethylglycine” (Monsanto Company, priority 1983, dated 1984)

Tests used:
Test in all cases: post-emergence herbicidal activity, greenhouse
Assay type in all cases: in vivo
[1] = tested on: Rice; conditions: Table III
Method in brief: (§1)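 Candidate chemical is applied by atomizer at the indicated rates to emerged plants of 2–3 weeks, spray containing about 0.4 wt% emulsifier. Effects are judged as injury against unsprayed control pans, approximately two and four weeks post-application.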

[2] = tested on: Hemp Sesbania; conditions: Table III
Method in brief: as §1

[3] = tested on: Johnsongrass; conditions: Table II
Method in brief: as §1

[4] = tested on: Cocklebur
Method in brief: as §1

[5] = tested on: Sugar Beet; conditions: Table III
Method in brief: as §1

[6] = tested on: Wild Buckwheat; conditions: Table III
Method in brief: as §1

[7] = tested on: Canada Thistle; conditions: Table II
Method in brief: as §1

[8] = tested on: Quackgrass; conditions: Table II
Method in brief: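 The readout is plant injury compared with untreated pans, taken at two time points, about two and four weeks after spraying. Plants had grown two to three weeks in greenhouse topsoil pans before atomizer treatment.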

[9] = tested on: Velvetleaf
Method in brief: as §1

[10] = 2 WAT, 1.1 kg/h, formulated in anhydrous tetrahydrofuran
[11] = 2 WAT, 5.6 kg/h, formulated in anhydrous tetrahydrofuran
[12] = 2 WAT, .28 kg/h, formulated in anhydrous tetrahydrofuran
[13] = 4 WAT, 1.1 kg/h, formulated in anhydrous tetrahydrofuran
[14] = 4 WAT, 5.6 kg/h, formulated in anhydrous tetrahydrofuran
[15] = 4 WAT, .28 kg/h, formulated in anhydrous tetrahydrofuran
[16] = 2 WAT, 11.2 kg/h, formulated in anhydrous tetrahydrofuran
[17] = 4 WAT, 11.2 kg/h, formulated in anhydrous tetrahydrofuran
[18] = Table II, 2 WAT, 5.6 kg/h, formulated in anhydrous tetrahydrofuran
[19] = Table II, 2 WAT, 11.2 kg/h, formulated in anhydrous tetrahydrofuran
[20] = Table II, 4 WAT, 5.6 kg/h, formulated in anhydrous tetrahydrofuran
[21] = Table II, 4 WAT, 11.2 kg/h, formulated in anhydrous tetrahydrofuran
[22] = Table III, 2 WAT, 1.1 kg/h, formulated in anhydrous tetrahydrofuran
[23] = Table III, 2 WAT, 5.6 kg/h, formulated in anhydrous tetrahydrofuran
[24] = Table III, 2 WAT, .28 kg/h, formulated in anhydrous tetrahydrofuran
[25] = Table III, 4 WAT, 1.1 kg/h, formulated in anhydrous tetrahydrofuran
[26] = Table III, 4 WAT, 5.6 kg/h, formulated in anhydrous tetrahydrofuran
[27] = Table III, 4 WAT, .28 kg/h, formulated in anhydrous tetrahydrofuran

CCCCOC(=O)CNCP(=O)(O)O[Si](c1ccccc1)(c1ccccc1)C(C)(C)C [Ex. 6, Glycine, N--((([(1,1-Dimethylethyl)Diphenylsilyl]Oxy)Hydroxyphosphinyl)methyl)-Butyl Ester]
3 (75-99% inhibition): Plant Response Index (O) ([1]; 4 WAT, 5.6 kg/h) | Plant Response Index (B) ([4]; Table III, 2 WAT, 5.6 kg/h) | Plant Response Index (B) ([4]; Table III, 4 WAT, 5.6 kg/h) | Plant Response Index (M) ([5]; 4 WAT, 5.6 kg/h) | Plant Response Index (Q) ([6]; 4 WAT, 5.6 kg/h) | Plant Response Index (A) ([7]; 2 WAT, 11.2 kg/h)
2 (50-74% inhibition): Plant Response Index (O) ([1]; 2 WAT, 5.6 kg/h) | Plant Response Index (O) [1, 14] | Plant Response Index (R) ([2]; 2 WAT, 5.6 kg/h) | Plant Response Index (R) ([2]; 4 WAT, 5.6 kg/h) | Plant Response Index (I) ([3]; 4 WAT, 5.6 kg/h) | Plant Response Index (B) ([4]; Table II, 2 WAT, 11.2 kg/h) | Plant Response Index (B) ([4]; Table II, 4 WAT, 11.2 kg/h) | Plant Response Index (B) [4, 21] | Plant Response Index (B) ([4]; Table III, 2 WAT, 1.1 kg/h) | Plant Response Index (B) [4, 23] | Plant Response Index (B) ([4]; Table III, 4 WAT, 1.1 kg/h) | Plant Response Index (B) [4, 26] | Plant Response Index (M) ([5]; 2 WAT, 5.6 kg/h) | Plant Response Index (Q) ([6]; 2 WAT, 1.1 kg/h) | Plant Response Index (Q) [6, 10] | Plant Response Index (Q) ([6]; 2 WAT, 5.6 kg/h) | Plant Response Index (Q) [6, 11] | Plant Response Index (Q) [6, 13] | Plant Response Index (Q) [6, 14] | Plant Response Index (C) ([9]; Table II, 2 WAT, 11.2 kg/h) | Plant Response Index (C) ([9]; Table III, 2 WAT, 5.6 kg/h) | Plant Response Index (C) [9, 23] | Plant Response Index (C) ([9]; Table III, 4 WAT, 5.6 kg/h) | Plant Response Index (C) [9, 26]
1 (25-49% inhibition): Plant Response Index (O) ([1]; 2 WAT, 1.1 kg/h) | Plant Response Index (O) [1, 11] | Plant Response Index (O) ([1]; 4 WAT, 1.1 kg/h) | Plant Response Index (R) ([2]; 2 WAT, 1.1 kg/h) | Plant Response Index (R) [2, 10] | Plant Response Index (R) ([2]; 4 WAT, 1.1 kg/h) | Plant Response Index (I) ([3]; 2 WAT, 11.2 kg/h) | Plant Response Index (I) [3, 14] | Plant Response Index (I) [3, 17] | Plant Response Index (B) ([4]; Table II, 2 WAT, 5.6 kg/h) | Plant Response Index (B) [4, 18] | Plant Response Index (B) [4, 19] | Plant Response Index (B) ([4]; Table II, 4 WAT, 5.6 kg/h) | Plant Response Index (B) [4, 20] | Plant Response Index (B) [4, 22] | Plant Response Index (B) [4, 24] | Plant Response Index (B) [4, 25] | Plant Response Index (B) [4, 27] | Plant Response Index (M) ([5]; 2 WAT, 1.1 kg/h) | Plant Response Index (M) [5, 10] | Plant Response Index (M) [5, 11] | Plant Response Index (M) ([5]; 4 WAT, 1.1 kg/h) | Plant Response Index (M) [5, 13] | Plant Response Index (M) [5, 14] | Plant Response Index (Q) ([6]; 2 WAT, .28 kg/h) | Plant Response Index (Q) [6, 12] | Plant Response Index (Q) ([6]; 4 WAT, 1.1 kg/h) | Plant Response Index (Q) [6, 15] | Plant Response Index (A) ([7]; 4 WAT, 5.6 kg/h) | Plant Response Index (A) [7, 17] | Plant Response Index (H) ([8]; 2 WAT, 11.2 kg/h) | Plant Response Index (H) [8, 14] | Plant Response Index (C) ([9]; Table II, 4 WAT, 11.2 kg/h) | Plant Response Index (C) [9, 21] | Plant Response Index (C) ([9]; Table III, 2 WAT, 1.1 kg/h) | Plant Response Index (C) [9, 22] | Plant Response Index (C) ([9]; Table III, 4 WAT, 1.1 kg/h) | Plant Response Index (C) [9, 25]
4 (100% inhibition): Plant Response Index (R) [2, 11] | Plant Response Index (R) [2, 14] | Plant Response Index (A) ([7]; 4 WAT, 11.2 kg/h) | Plant Response Index (H) ([8]; 4 WAT, 11.2 kg/h)
0 (0-24% inhibition): Plant Response Index (O) [1, 10] | Plant Response Index (O) ([1]; 2 WAT, .28 kg/h) | Plant Response Index (O) [1, 12] | Plant Response Index (O) [1, 13] | Plant Response Index (O) [1, 15] | Plant Response Index (R) [2, 12] | Plant Response Index (R) [2, 13] | Plant Response Index (R) [2, 15] | Plant Response Index (I) ([3]; 2 WAT, 5.6 kg/h) | Plant Response Index (I) [3, 11] | Plant Response Index (I) [3, 16] | Plant Response Index (I) ([3]; 4 WAT, 11.2 kg/h) | Plant Response Index (B) ([4]; Table III, 2 WAT, .28 kg/h) | Plant Response Index (M) ([5]; 2 WAT, .28 kg/h) | Plant Response Index (M) [5, 12] | Plant Response Index (M) [5, 15] | Plant Response Index (A) ([7]; 2 WAT, 5.6 kg/h) | Plant Response Index (A) [7, 11] | Plant Response Index (A) [7, 16] | Plant Response Index (A) [7, 14] | Plant Response Index (H) ([8]; 2 WAT, 5.6 kg/h) | Plant Response Index (H) [8, 11] | Plant Response Index (H) [8, 16] | Plant Response Index (H) ([8]; 4 WAT, 5.6 kg/h) | Plant Response Index (H) [8, 17] | Plant Response Index (C) ([9]; Table II, 2 WAT, 5.6 kg/h) | Plant Response Index (C) [9, 18] | Plant Response Index (C) [9, 19] | Plant Response Index (C) ([9]; Table II, 4 WAT, 5.6 kg/h) | Plant Response Index (C) [9, 20] | Plant Response Index (C) ([9]; Table III, 2 WAT, .28 kg/h) | Plant Response Index (C) [9, 24] | Plant Response Index (C) [9, 27]
